Laboratory results published in publication PMC6282106, “Commercial drugs containing flavonoids are active in mice with malaria and in vitro against chloroquine-resistant Plasmodium falciparum” (Memórias do Instituto Oswaldo Cruz, 2018).
Converted amounts (≈) assume the structure as drawn. Like-named read-outs stand apart in the source and are kept apart here.

Tests used:
[1] = test system: Plasmodium falciparum chloroquine-resistant clone (W2); experiment: microbe, parasite or virus in culture; format: cell-based; conditions: for In vitro activity against P. falciparum, in words: P. falciparum W2; for IC50: Plasmodium falciparum, W2, P. falciparum W2, anti-HRPII test, read-out: IC50 (dose inhibiting 50% of parasite growth), mean ± SD
[2] = test system: BGM cell line
[3] = test system: Plasmodium berghei NK65; experiment: Antimalarial suppressive test in mice infected with P. berghei; conditions: for Activity in P. berghei-infected mice, in words: 50 mg/kg by oral route, Table IV experiment
[4] = BGM cells, 24 h, MTT, mean of 3-5 experiments
[5] = Table IV, 50 mg/kg oral, daily for three days
[6] = Table IV, 50 mg/kg oral, daily for three days, vs untreated controls
[7] = P. falciparum W2, anti-HRPII test, mean of 3-5 experiments
[8] = Table V experiment, chloroquine 15 mg/kg
[9] = Table VI, chloroquine 1.25 mg/kg
[10] = Table VI, chloroquine 2.5 mg/kg
[11] = chloroquine at subcurative doses, dose not given

O=c1c(O)c(-c2ccc(O)c(O)c2)oc2cc(O)cc(O)c12 [Quercetin]
Selectivity index (SI) MDL50 / IC50 [1]: ≥ 76.9
In vitro activity against P. falciparum, in words [1]: most active flavonoid
IC50 ([1]; mean of 3-5 experiments): 13 ± 8.4 µg/mL (≈ 43 µM)
MDL50 (minimum lethal dose for 50% of cells), mean ± SD [2, 4]: ≥ 1000 µg/mL
Activity in P. berghei-infected mice, in words [3]: best standard flavonoid
Survival (average ± SD) [3, 5]: 22 ± 6
mean parasitaemia ± SD, 5th day [3, 5]: 4.7 ± 4.0
mean parasitaemia ± SD, 7th day [3, 5]: 8.3 ± 5.1
% Reduction of parasitaemia, 7th day [3, 6]: 44%
% Reduction of parasitaemia, 5th day ([3]; Table IV, 50 mg/kg oral, daily for three days, vs untreated controls, 50 mg/kg): 52%

[O]=[Zn] [Zinc oxide]
In vitro activity against P. falciparum, in words [1]: reduced the P. falciparum parasite growth
IC50 (dose inhibiting 50% of parasite growth), mean ± SD [1, 7]: 2.7 ± 1.4 µg/mL
MDL50 (minimum lethal dose for 50% of cells), mean ± SD [2, 4]: ≥ 1000 µg/mL

CC(=O)N[C@@H](CS)C(=O)O [N-Acetylcysteine]
IC50 (dose inhibiting 50% of parasite growth), mean ± SD [1, 7]: ≥ 50 µg/mL
MDL50 (minimum lethal dose for 50% of cells), mean ± SD [2]: ≥ 1000 µg/mL

N[C@@H](CCC(=O)N[C@@H](CS)C(=O)NCC(=O)O)C(=O)O [L-Glutathione]
IC50 (dose inhibiting 50% of parasite growth), mean ± SD [1]: ≥ 50 µg/mL
MDL50 (minimum lethal dose for 50% of cells), mean ± SD [2]: ≥ 1000 µg/mL

COc1ccc([C@@H]2CC(=O)c3c(O)cc(O[C@@H]4O[C@H](CO[C@@H]5O[C@@H](C)[C@H](O)[C@@H](O)[C@H]5O)[C@@H](O)[C@H](O)[C@H]4O)cc3O2)cc1O [Hesperidin]
In vitro activity against P. falciparum, in words [1]: no activity
IC50 (dose inhibiting 50% of parasite growth), mean ± SD [1, 7]: ≥ 50 µg/mL
IC50 (dose inhibiting 50% of parasite growth), mean ± SD ([1]; P. falciparum W2, anti-HRPII test, mean of 3-5 experiments, listed as hesperidin): > 25 µg/mL
MDL50 (minimum lethal dose for 50% of cells), mean ± SD [2, 4]: ≥ 1000 µg/mL
Activity in P. berghei-infected mice, in words [3]: slightly active
Survival (average ± SD) [3, 5]: 20 ± 3
mean parasitaemia ± SD, 5th day [3, 5]: 5.2 ± 0.8
mean parasitaemia ± SD, 7th day [3, 5]: 9.1 ± 1.3
% Reduction of parasitaemia, 5th day [3, 6]: 47%
% Reduction of parasitaemia, 7th day [3, 6]: 38%

CCN(CC)CCCC(C)Nc1ccnc2cc(Cl)ccc12 (stereo not drawn) [Chloroquine]
IC50 ([1]; mean of 3-5 experiments): 0.175 ± 0.02 µg/mL (≈ 0.547 µM)
% Reduction of parasitaemia, 5th day ([3]; Table IV, chloroquine 20 mg/kg): 100%
% Reduction of parasitaemia, 7th day ([3]; Table IV, chloroquine 20 mg/kg): 100%
Survival (average ± SD) ([3]; Table IV, chloroquine 20 mg/kg): 24 ± 5
mean parasitaemia ± SD, 5th day ([3]; Table IV, chloroquine 20 mg/kg): 0.0 ± 0.0
mean parasitaemia ± SD, 7th day ([3]; Table IV, chloroquine 20 mg/kg): 0.0 ± 0.0
% Reduction of parasitaemia, 7th day [3, 8]: 65%
Survival (average ± SD) [3, 8]: 24 ± 5
mean parasitaemia ± SD, 5th day [3, 8]: 0.0 ± 0.0
mean parasitaemia ± SD, 7th day [3, 8]: 2.9 ± 1.1
% Reduction of parasitaemia, 5th day ([3]; Table V experiment, chloroquine 15 mg/kg, sub-curative): 100%
% Reduction of parasitaemia, 5th day [3, 9]: 93%
% Reduction of parasitaemia, 7th day [3, 9]: 49%
% Reduction of parasitaemia, 9th day [3, 9]: 56%
Survival (average ± SD) [3, 9]: 19 ± 4
mean parasitaemia ± SD, 5th day [3, 9]: 0.1 ± 0.03%
mean parasitaemia ± SD, 7th day [3, 9]: 7.6 ± 3.3%
mean parasitaemia ± SD, 9th day [3, 9]: 5.1 ± 0.1%
% Reduction of parasitaemia, 5th day [3, 10]: 95%
% Reduction of parasitaemia, 7th day [3, 10]: 79%
% Reduction of parasitaemia, 9th day [3, 10]: 29%
Survival (average ± SD) [3, 10]: 20 ± 9
mean parasitaemia ± SD, 5th day [3, 10]: 0.01 ± 0.1%
mean parasitaemia ± SD, 7th day [3, 10]: 3.1 ± 5.3%
mean parasitaemia ± SD, 9th day [3, 10]: 8.4 ± 4.5%
% Reduction of parasitaemia, 5th day ([3]; Table VI, chloroquine 5 mg/kg): 94%
% Reduction of parasitaemia, 7th day ([3]; Table VI, chloroquine 5 mg/kg): 69%
% Reduction of parasitaemia, 9th day ([3]; Table VI, chloroquine 5 mg/kg): 57%
Survival (average ± SD) ([3]; Table VI, chloroquine 5 mg/kg): 24 ± 4
mean parasitaemia ± SD, 5th day ([3]; Table VI, chloroquine 5 mg/kg): 0.0 ± 0.1%
mean parasitaemia ± SD, 7th day ([3]; Table VI, chloroquine 5 mg/kg): 4.7 ± 4.0%
mean parasitaemia ± SD, 9th day ([3]; Table VI, chloroquine 5 mg/kg): 5.1 ± 3.1%
Reduction of parasitaemia, day 5 [3, 11]: 95%
Reduction of parasitaemia, day 7 [3, 11]: 79%

CC1=C(/C=C/C(C)=C/C=C/C(C)=C/C=C/C=C(C)/C=C/C=C(C)/C=C/C2=C(C)CCCC2(C)C)C(C)(C)CCC1 [Beta carotene]
Selectivity index (SI) MDL50 / IC50 [1]: ≥ 71.4
In vitro activity against P. falciparum, in words [1]: reduced the P. falciparum parasite growth
IC50 ([1]; mean of 3-5 experiments): 14 ± 3.1 µg/mL (≈ 26.1 µM)
MDL50 (minimum lethal dose for 50% of cells), mean ± SD [2, 4]: ≥ 1000 µg/mL

CC(=O)Oc1c(C)c(C)c2c(c1C)CCC(C)(CCC[C@H](C)CCC[C@H](C)CCCC(C)C)O2 (stereo partly drawn) [Tocopherol acetate]
Selectivity index (SI) MDL50 / IC50 [1]: Inactive
IC50 ([1]; mean of 3-5 experiments): ≥ 50 µg/mL
MDL50 (minimum lethal dose for 50% of cells), mean ± SD [2, 4]: ≥ 1000 µg/mL

[Se] [Selenium]
IC50 (dose inhibiting 50% of parasite growth), mean ± SD [1, 7]: ≥ 50 µg/mL

Cc1cc2nc3c(=O)[nH]c(=O)nc-3n(C[C@H](O)[C@H](O)[C@H](O)CO)c2cc1C [Riboflavin]
In vitro activity against P. falciparum, in words [1]: reduced the P. falciparum parasite growth
IC50 ([1]; mean of 3-5 experiments): 8.1 ± 4 µg/mL (≈ 21.5 µM)
MDL50 (minimum lethal dose for 50% of cells), mean ± SD [2, 4]: ≥ 1000 µg/mL

O=C1O[C@H]([C@@H](O)CO)C(O)=C1O [Ascorbic acid]
IC50 ([1]; mean of 3-5 experiments): ≥ 50 µg/mL

O=c1c(-c2ccc(O)cc2)coc2cc(O)cc(O)c12 [Genistein]
Selectivity index (SI) MDL50 / IC50 ([1]; BGM MDL50 / P. falciparum W2 IC50, toxicity considered at SI < 10): Inactive
In vitro activity against P. falciparum, in words [1]: no activity
IC50 (dose inhibiting 50% of parasite growth), mean ± SD [1, 7]: 28.8 ± 18.0 µg/mL
IC50 ([1]; mean of 3-5 experiments): > 25 µg/mL
MDL50 (minimum lethal dose for 50% of cells), mean ± SD [2, 4]: ≥ 1000 µg/mL
